Assay [1] addresses T1, KRas-mediated phosphorylation of ERK in H358 cells (Homo sapiens, UniProt P01116, G12C).
T1 construct: pERK HTRF read-out
The assay is described as follows: Inhibition of KRas-mediated phosphorylation of ERK (HTRF), H358 cells. The note with it: HTRF pERK, 3 h incubation. In kind it is cell-based.

For another assay, the target named is T2, KRas G12S (Homo sapiens, UniProt P01116, G12S).
T2 construct: Biotinylated KRas (corresponding to amino acids 1-169, produced at Accelegan Inc.); biotin (biotinylated); purchased Accelegan Inc
The assay is described as follows: KRas binding assay, TR-FRET displacement of Cy5 labelled tracer. The conditions noted are these: 60-minute incubation at room temperature, 1% DMSO, pH 7.5. In outline:
(§1)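 Assay buffer was HEPES (50 mM, pH 7.5) with MgCl2 (5 mM), DTT (1 mM) and Tween-20 (0.005%). Biotinylated KRas spanning residues 1-169 met tracer, terbium streptavidin and compound (1% DMSO, final) for 60 minutes at ambient temperature before reading. POC values were fitted for IC50.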
Background: In TR-FRET formats the signal depends on donor and acceptor labels being close together.

For the next assay, the target named is T3, KRas G12C (Homo sapiens, UniProt P01116, G12C).
T3 construct: Biotinylated KRas (corresponding to amino acids 1-169, produced at Accelegan Inc.); biotin (biotinylated); purchased Accelegan Inc
Described as above. The conditions noted are these: 60-minute incubation at room temperature, 1% DMSO, pH 7.5. The method, boiled down:
as §1

For a further assay, the target named is T4, KRas WT (Homo sapiens, UniProt P01116).
T4 construct: Biotinylated KRas (corresponding to amino acids 1-169, produced at Accelegan Inc.); biotin (biotinylated); purchased Accelegan Inc
The description is as above. The note with it: 60-minute incubation at room temperature, 1% DMSO, pH 7.5. In outline: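 Biotinylated KRas (residues 1-169) was incubated with tracer, terbium-streptavidin and compound at 1% DMSO final in 50 mM HEPES pH 7.5 containing 5 mM MgCl2, 0.005% Tween-20 and 1 mM DTT. The plate was read after 60 min at room temperature, and percent-of-control data were fit to a 4-parameter IC50 equation.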

Assay [2] concerns the target T5, KRas-mediated phosphorylation of ERK in MKN1 cells (Homo sapiens, UniProt P01116).
T5 construct: pERK HTRF read-out
Kind of assay: Inhibition of KRas-mediated phosphorylation of ERK (HTRF), MKN1 cells. In kind it is cell-based. The conditions noted are these: MKN1 cells (KRas WT); HTRF pERK; 3 h incubation. The procedure:
Inhibition of KRas Phosphorylation of ERK (HTRF) by Exemplary Compounds of Formula (Ia) or (Ib)
Cisbio HTRF Advanced pERK Assay Catalog #64AERPEH • Cells: MKN1, PSN1 • Procedure: • 1. Day 1: Seed 6,000 cells/well −25 μl/well in 384-well white solid bottom plate; RPM1_10% FBS. Incubate overnight at 37 °C/5% CO2. • 2.

Assay [3] deals with T6, KRas-mediated phosphorylation of ERK in A549 cells (Homo sapiens, UniProt P01116, G12S).
T6 construct: pERK HTRF read-out
The assay is described as follows: Inhibition of KRas-mediated phosphorylation of ERK (HTRF), A549 cells. In kind it is cell-based. The note with it: HTRF pERK, 3 h incubation.

T4 sequence (P01116 1-169 isoform P01116-2): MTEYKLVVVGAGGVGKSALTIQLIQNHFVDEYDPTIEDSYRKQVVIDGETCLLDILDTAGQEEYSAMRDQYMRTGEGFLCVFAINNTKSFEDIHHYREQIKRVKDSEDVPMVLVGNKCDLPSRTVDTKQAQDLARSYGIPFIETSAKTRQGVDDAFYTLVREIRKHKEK
T5 sequence (P01116 1-188 isoform P01116-2): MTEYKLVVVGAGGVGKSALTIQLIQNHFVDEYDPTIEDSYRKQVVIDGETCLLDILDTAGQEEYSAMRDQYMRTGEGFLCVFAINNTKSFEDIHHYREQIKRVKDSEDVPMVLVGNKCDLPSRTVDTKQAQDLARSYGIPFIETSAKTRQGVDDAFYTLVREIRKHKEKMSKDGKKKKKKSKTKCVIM
T6 sequence (P01116 1-188 isoform P01116-2 G12S): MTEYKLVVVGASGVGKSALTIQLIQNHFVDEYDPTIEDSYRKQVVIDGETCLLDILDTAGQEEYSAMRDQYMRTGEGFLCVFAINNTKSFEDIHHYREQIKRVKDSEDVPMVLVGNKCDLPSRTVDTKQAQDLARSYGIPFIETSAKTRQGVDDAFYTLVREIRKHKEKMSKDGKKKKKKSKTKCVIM
T3 sequence (P01116 1-169 isoform P01116-2 G12C): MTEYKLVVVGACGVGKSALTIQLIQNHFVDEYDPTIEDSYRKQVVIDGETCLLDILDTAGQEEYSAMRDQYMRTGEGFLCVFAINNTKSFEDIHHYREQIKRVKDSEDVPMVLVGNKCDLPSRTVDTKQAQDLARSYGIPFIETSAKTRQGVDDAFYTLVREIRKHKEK
T2 sequence (P01116 1-169 isoform P01116-2 G12S): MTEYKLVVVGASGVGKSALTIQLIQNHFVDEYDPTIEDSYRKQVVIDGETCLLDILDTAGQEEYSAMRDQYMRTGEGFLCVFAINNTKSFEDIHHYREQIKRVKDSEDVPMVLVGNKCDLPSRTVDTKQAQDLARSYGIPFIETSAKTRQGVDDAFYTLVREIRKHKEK
T1 sequence (P01116 1-188 isoform P01116-2 G12C): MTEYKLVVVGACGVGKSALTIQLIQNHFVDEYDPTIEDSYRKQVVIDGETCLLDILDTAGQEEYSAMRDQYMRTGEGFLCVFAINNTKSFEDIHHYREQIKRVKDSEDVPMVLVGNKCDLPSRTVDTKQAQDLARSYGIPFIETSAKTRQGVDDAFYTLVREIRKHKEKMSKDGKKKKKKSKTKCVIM

As a reminder, the IC50 is the midpoint of a concentration-inhibition curve. Low values mean greater potency in that assay, high ones weaker potency in that assay. For the compound `CCc1c(F)ccc2cc(O)cc(-c3ncc4c(N5CCCCC(C(=O)n6ccc(C)n6)CC5)nc(OC[C@@]56CCCN5C[C@H](F)C6)nc4c3F)c12` (stereo partly drawn) [Example 53, (1-(7-(8-ethyl-7-fluoro-3-hydroxynaphthalen-1-yl)-8-fluoro-2-(((2R,7aS)-2-fluorotetrahydro-1H-pyrrolizin-7a(5H)-yl)methoxy)pyrido[4,3-d]pyrimidin-4-yl)azocan-4-yl)(3-methyl-1H-pyrazol-1-yl)methanone], the IC50 in assay [1] was 88 nM; at KRas G12S, 2 nM; at KRas G12C, 7 nM; on KRas WT, 77 nM; in assay [2], 305 nM; in assay [3] it was 16 nM.
As for `CCc1c(F)ccc2cc(O)cc(-c3ncc4c(N5CCCC(C(=O)n6ccc(C)n6)CCC5)nc(OC[C@@]56CCCN5C[C@H](F)C6)nc4c3F)c12` [Example 54, (1-(7-(8-ethyl-7-fluoro-3-hydroxynaphthalen-1-yl)-8-fluoro-2-(((2R,7aS)-2-fluorotetrahydro-1H-pyrrolizin-7a(5H)-yl)methoxy)pyrido[4,3-d]pyrimidin-4-yl)azocan-5-yl)(3-methyl-1H-pyrazol-1-yl)methanone], the IC50 in assay [1] came to 1420 nM; at KRas G12S, 266 nM; on KRas G12C it was 502 nM; on KRas WT, 483 nM; in assay [2] it was 2420 nM; in assay [3], 334 nM.
With `CCc1c(F)ccc2cc(O)cc(-c3ncc4c(N5CCCCCC(C(=O)n6ccc(C)n6)C5)nc(OC[C@@]56CCCN5C[C@H](F)C6)nc4c3F)c12` (stereo partly drawn) [Example 55, (1-(7-(8-ethyl-7-fluoro-3-hydroxynaphthalen-1-yl)-8-fluoro-2-(((2R,7aS)-2-fluorotetrahydro-1H-pyrrolizin-7a(5H)-yl)methoxy)pyrido[4,3-d]pyrimidin-4-yl)azocan-3-yl)(3-methyl-1H-pyrazol-1-yl)methanone], the IC50 amounted to 90 nM in assay [1]; 28 nM on KRas G12S; 5 nM at KRas G12C; 7 nM on KRas WT; 50 nM in assay [2]; 116 nM in assay [3].
Take `CCc1c(F)ccc2cc(O)cc(-c3ncc4c(N5CCC(C(=O)n6cc(C)cn6)CC5)nc(OC[C@@]56CCCN5C[C@H](F)C6)nc4c3F)c12` [Example 57, (1-(7-(8-ethyl-7-fluoro-3-hydroxynaphthalen-1-yl)-8-fluoro-2-(((2R,7aS)-2-fluorotetrahydro-1H-pyrrolizin-7a(5H)-yl)methoxy)pyrido[4,3-d]pyrimidin-4-yl)piperidin-4-yl)(4-methyl-1H-pyrazol-1-yl)methanone]: the IC50 in assay [1] came out at 5580 nM; on KRas G12S, 66 nM; at KRas G12C it was 96 nM; at KRas WT it was 107 nM; in assay [2] it was 8500 nM; in assay [3] it was 200 nM.
On to `CCc1c(F)ccc2cc(O)cc(-c3ncc4c(N5CCC(C(=O)n6ccc(N(C)C)n6)CC5)nc(OC[C@@]56CCCN5C[C@H](F)C6)nc4c3F)c12` [Example 58, (3-(dimethylamino)-1H-pyrazol-1-yl)(1-(7-(8-ethyl-7-fluoro-3-hydroxynaphthalen-1-yl)-8-fluoro-2-(((2R,7aS)-2-fluorotetrahydro-1H-pyrrolizin-7a(5H)-yl)methoxy)pyrido[4,3-d]pyrimidin-4-yl)piperidin-4-yl)methanone], for which the IC50 in assay [1] worked out at 677 nM; at KRas G12S, 221 nM; at KRas G12C it was 108 nM; on KRas WT it was 89 nM; in assay [2] it was 427 nM; in assay [3], 338 nM.
`CCc1c(F)ccc2cc(O)cc(-c3ncc4c(N5CC6CCC(C5)C6C(=O)n5cccn5)nc(OC[C@@]56CCCN5C[C@H](F)C6)nc4c3F)c12` (stereo partly drawn) [Example 59, ((1R,5S,8S)-3-(7-(8-ethyl-7-fluoro-3-hydroxynaphthalen-1-yl)-8-fluoro-2-(((2R,7aS)-2-fluorotetrahydro-1H-pyrrolizin-7a(5H)-yl)methoxy)pyrido[4,3-d]pyrimidin-4-yl)-3-azabicyclo[3.2.1]octan-8-yl)(1H-pyrazol-1-yl)methanone]: the 50% inhibitory concentration (IC50) was 486 nM in assay [1]; less than 2 nM on KRas G12S; 8 nM on KRas G12C; less than 2 nM on KRas WT; 27 nM in assay [2]; 372 nM in assay [3].
As to `CCc1c(F)ccc2cc(O)cc(-c3ncc4c(N5CCC(C(=O)n6ccc(OC)n6)CC5)nc(OC[C@@]56CCCN5C[C@H](F)C6)nc4c3F)c12` [Example 61, (1-(7-(8-ethyl-7-fluoro-3-hydroxynaphthalen-1-yl)-8-fluoro-2-(((2R,7aS)-2-fluorotetrahydro-1H-pyrrolizin-7a(5H)-yl)methoxy)pyrido[4,3-d]pyrimidin-4-yl)piperidin-4-yl)(3-methoxy-1H-pyrazol-1-yl)methanone], the IC50 in assay [1] turned out to be 8570 nM; at KRas G12S, 34 nM; on KRas G12C, 336 nM; at KRas WT, 136 nM; in assay [2] it was 2610 nM; in assay [3] it was 84 nM.
Take `CCc1c(F)ccc2cc(O)cc(-c3ncc4c(N5CCCC(C(=O)n6ccc(C)n6)CC5)nc(OC[C@@]56CCCN5C[C@H](F)C6)nc4c3F)c12` (stereo partly drawn) [Example 63, (1-(7-(8-ethyl-7-fluoro-3-hydroxynaphthalen-1-yl)-8-fluoro-2-(((2R,7aS)-2-fluorotetrahydro-1H-pyrrolizin-7a(5H)-yl)methoxy)pyrido[4,3-d]pyrimidin-4-yl)azepan-4-yl)(3-methyl-1H-pyrazol-1-yl)methanone]: the IC50 in assay [1] was found to be 3250 nM; on KRas G12S, 20 nM; at KRas G12C it was 96 nM; at KRas WT, 145 nM; in assay [2] it was 1460 nM; in assay [3], 40 nM.
In the case of `CCc1c(F)ccc2cc(O)cc(-c3ncc4c(N5CCC(C(=O)n6cc(N(C)C)cn6)CC5)nc(OC[C@@]56CCCN5C[C@H](F)C6)nc4c3F)c12` [Example 64, (4-(dimethylamino)-1H-pyrazol-1-yl)(1-(7-(8-ethyl-7-fluoro-3-hydroxynaphthalen-1-yl)-8-fluoro-2-(((2R,7aS)-2-fluorotetrahydro-1H-pyrrolizin-7a(5H)-yl)methoxy)pyrido[4,3-d]pyrimidin-4-yl)piperidin-4-yl)methanone], the half-maximal inhibitory concentration (IC50) in assay [1] turned out to be 4600 nM; at KRas G12S it was 40 nM; on KRas G12C, 13 nM; at KRas WT it was 32 nM; in assay [2], 4500 nM; in assay [3] it was 119 nM.
Regarding `CCc1c(F)ccc2cc(O)cc(-c3ncc4c(N5CCCC(C(=O)n6ccc(C)n6)C5)nc(OC[C@@]56CCCN5C[C@H](F)C6)nc4c3F)c12` (stereo partly drawn) [Example 65, (1-(7-(8-ethyl-7-fluoro-3-hydroxynaphthalen-1-yl)-8-fluoro-2-(((2R,7aS)-2-fluorotetrahydro-1H-pyrrolizin-7a(5H)-yl)methoxy)pyrido[4,3-d]pyrimidin-4-yl)piperidin-3-yl)(3-methyl-1H-pyrazol-1-yl)methanone], the IC50 in assay [1] is 415 nM; on KRas G12S it was 14 nM; at KRas G12C it was 28 nM; at KRas WT it was 17 nM; in assay [2], 266 nM; in assay [3], greater than 10000 nM.

These data come from patent US20260356856A1, “KRAS G12S AND G12C INHIBITORS” (MIRATI THERAPEUTICS, INC., priority 2023, published 2026).
